From ChEMBL document CHEMBL1123414, “Neurochemistry of aging. 1. Toxins for an animal model of Alzheimer's disease” (J Med Chem, 1986)
pIC50: −log10 of the molar value.

Key:
[1] = target: T1, High affinity choline transporter 1 (Mus musculus, UniProt Q8BGY9); assay: In vitro ability to inhibit the transport of [3H]choline in to high affinity choline transport system HAChT
T1 sequence (Q8BGY9 whole entry): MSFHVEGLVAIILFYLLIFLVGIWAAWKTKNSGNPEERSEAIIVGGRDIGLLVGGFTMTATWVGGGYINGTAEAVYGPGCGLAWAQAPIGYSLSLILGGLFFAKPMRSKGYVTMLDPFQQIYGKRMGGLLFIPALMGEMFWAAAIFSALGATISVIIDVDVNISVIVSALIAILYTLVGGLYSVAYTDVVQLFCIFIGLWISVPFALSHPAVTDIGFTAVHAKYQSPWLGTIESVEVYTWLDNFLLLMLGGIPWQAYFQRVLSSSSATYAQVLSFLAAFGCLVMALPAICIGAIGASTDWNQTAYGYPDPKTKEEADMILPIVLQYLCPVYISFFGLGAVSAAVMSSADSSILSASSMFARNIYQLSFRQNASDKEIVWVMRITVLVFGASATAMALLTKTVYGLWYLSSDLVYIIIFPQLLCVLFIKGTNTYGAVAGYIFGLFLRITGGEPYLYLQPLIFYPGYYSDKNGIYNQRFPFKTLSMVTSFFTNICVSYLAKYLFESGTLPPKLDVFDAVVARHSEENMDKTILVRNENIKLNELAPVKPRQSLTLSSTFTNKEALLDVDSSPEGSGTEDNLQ

[2] = target: Muscarinic acetylcholine receptor M3 (Rattus norvegicus) (UniProt P08483); assay: Compound was tested in vitro for its ability to displace [3H]-QNB from brain Muscarinic acetylcholine receptor
Muscarinic acetylcholine receptor M3 (Rattus norvegicus), sequence (P08483 whole entry, looked up): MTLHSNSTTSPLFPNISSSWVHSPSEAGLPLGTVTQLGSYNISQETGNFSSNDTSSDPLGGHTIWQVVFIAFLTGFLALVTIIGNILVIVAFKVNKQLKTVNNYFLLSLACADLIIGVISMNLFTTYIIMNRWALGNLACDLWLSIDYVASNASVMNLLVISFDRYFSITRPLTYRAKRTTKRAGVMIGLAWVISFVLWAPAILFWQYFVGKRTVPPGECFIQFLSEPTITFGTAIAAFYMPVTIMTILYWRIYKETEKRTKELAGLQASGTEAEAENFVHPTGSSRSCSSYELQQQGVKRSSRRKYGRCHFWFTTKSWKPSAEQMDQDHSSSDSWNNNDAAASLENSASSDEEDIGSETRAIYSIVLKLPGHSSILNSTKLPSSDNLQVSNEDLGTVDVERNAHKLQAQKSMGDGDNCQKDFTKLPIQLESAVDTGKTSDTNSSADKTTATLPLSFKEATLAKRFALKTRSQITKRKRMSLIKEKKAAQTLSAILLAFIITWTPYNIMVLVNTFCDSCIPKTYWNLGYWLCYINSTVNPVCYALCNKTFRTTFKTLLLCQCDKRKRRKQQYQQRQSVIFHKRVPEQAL

| SMILES | pIC50 [1] | Displacement [2] [%] |
| --- | --- | --- |
| C[N+](C)(C)CCO [CHOLINE] | 5.80 |  |
| CC(C)C[N+]1(CCO)CC1 | 4.51 | 6 |
| CC[N+]1(CCO)CC1 | 5.82 | 18 |
| CCCC[N+]1(CCO)CC1 | < 3.00 | 9 |
| CCC[N+]1(CCO)CC1 | 5.12 | 16 |
